We go through 2 compounds from patent US8633166B2, “Methicillin-resistant Staphylococcus aureus active metabolites” (priority 2009, dated 2014).

Each structure is given as a SMILES string. Values after ≈ are worked out from the molar mass of the structure shown.

For one test, the system named is enterococci. The experiment in a line: In vitro MIC, for enterococci. It is filed as cell-based. The following applies: E. faecalis and E. faecium, vancomycin-susceptible and vancomycin-resistant strains. The procedure: (§1) All test articles were dissolved in DMSO. Stock solutions were prepared at 40-fold the highest concentration in the test plate. The final concentration of DMSO in the test system was 2.5%.
(§2) The medium employed for the MIC assay was Mueller Hinton II Broth (MHB II-Becton Dickinson, #212322, Lot #9044411) for most of the organisms. MHB II was supplemented with 2% lysed horse blood (Cleveland Scientific Lot #22299-1) to accommodate the growth of Streptococcus pneumoniae, Streptococcus pyogenes and Streptococcus agalactiae. The media were prepared at 102.5% the normal weight to offset the dilution created by the addition of 5 μL drug solution to each well of the microdilution panels. […]
(§3) Plates were stacked 3 high, covered with a lid on the top plate, placed in plastic bags, and incubated at 35° C. for approximately 18 hours for most of the isolates. The Streptococcus plates were read after 20 hours of incubation. […] The MIC was read and recorded as the lowest concentration of drug that inhibited visible growth of the organism.

Test [1] relates to methicillin resistant Staphylococcus aureus (MRSA). The experiment in a line: In vitro antimicrobial evaluation, modified CLSI (formerly NCCLS) method. Format: cell-based. Particulars: IC50 from percent growth versus test concentration; values only in FIG. 1. The procedure: The in vitro antimicrobial activity for the isolated glycosides is represented in FIG. 1. A modified version of CLSI (formerly NCCLS) method was used for the in vitro evaluation of test samples. Duplicate samples were transferred to 96-well microplates after diluting with 0.9% saline. The microbial cell suspensions were to give the desired target inocula after addition to the samples. Media and solvent controls were included in each assay. The IC50 was calculated by plotting percent growth versus test concentration.

The subject of the next test is streptococci. The experiment in a line: In vitro MIC, streptococci. It is filed as cell-based, Streptococcus. Particulars: highest concentrations considered for MIC readings. The procedure:
as §1, §2, §3

For a further test, the system named is Streptococcus pneumoniae. The experiment in a line: In vitro MIC, broth microdilution (CLSI). It is filed as cell-based. The following applies: MHB II with 2% lysed horse blood. The method, then:
as §1
(§4) The medium employed for the MIC assay was Mueller Hinton II Broth (MHB II-Becton Dickinson, #212322, Lot #9044411) for most of the organisms. MHB II was supplemented with 2% lysed horse blood (Cleveland Scientific Lot #22299-1) to accommodate the growth of Streptococcus pneumoniae, Streptococcus pyogenes and Streptococcus agalactiae. The media were prepared at 102.5% the normal weight to offset the dilution created by the addition of 5 μL drug solution to each well of the microdilution panels.
(§5) The MIC assay method followed the procedure described by the Clinical and Laboratory Standards Institute (see Clinical and Laboratory Standards Institute. Methods for Dilution Antimicrobial, Susceptibility Tests for Bacteria That Grow Aerobically; Approved Standard—Eighth Edition. CLSI document M07-A8 [ISBN 1-56238-689-1]. Clinical and Laboratory, Standards Institute, 940 West Valley Road, Suite 1400, Wayne, Pa. 19087-1898 USA, 2009) and employed automated liquid handlers to conduct serial dilutions and liquid transfers. Automated liquid handlers included the Multidrop 384 (Labsystems, Helsinki, Finland), Biomek 2000 and Multimek 96 (Beckman Coulter, Fullerton Calif.).
(§6) The wells of Columns 2-12 of standard 96-well microdilution plates (Falcon 3918) were filled with 150 μL of DMSO on the Multidrop 384. The drugs (300 μL) were dispensed into Column 1 of the appropriate row in these plates. These would become the mother plates from which the test plates (daughter plates) were prepared. The Biomek 2000 completed serial transfers through Column 11 in the mother plates. The wells of Column 12 contained no drug and were the organism growth control wells in the daughter plates. The daughter plates were loaded with 185 μL of the appropriate test media (described above) using the Multidrop 384. The daughter plates were prepared on the Multimek 96 instrument which transferred 5 μL of drug solution from each well of a mother plate to each corresponding well of each daughter plate in a single step. Therefore, the test agents were maintained in solution in 100% DMSO up until the point of being added to the final test medium.
(§7) Standardized inoculum of each organism was prepared per CLSI methods (See Clinical and Laboratory Standards Institute. Performance Standards for Antimicrobial Susceptibility Testing; Nineteenth Informational Supplement. CLSI document M100-S19 [ISBN 1-56238-690-5]. Clinical and Laboratory Standards Institute, 940 West Valley Road, Suite 1400, Wayne, Pa. 19087-1898 USA, 2009.). Suspensions were prepared in MHB to equal the turbidity of a 0.5 McFarland standard. The suspensions were diluted 1:9 in broth appropriate to the organism. The inoculum for each organism was dispensed into sterile reservoirs divided by width (Beckman Coulter), and the Biomek 2000 was used to inoculate the plates. Daughter plates were placed on the Biomek 2000 work surface reversed so that inoculation took place from low to high drug concentration. The Biomek 2000 delivered 10 μL of standardized inoculum into each well. This yielded a final cell concentration in the daughter plates of approximately 5×10^5 colony-forming-units/mL. Thus, the wells of the daughter plates ultimately contained 185 μL of broth, 5 μL of drug solution, and 10 μL of bacterial inoculum. The final concentration of DMSO in the assay plate was 2.5%.
(§8) Plates were stacked 3 high, covered with a lid on the top plate, placed in plastic bags, and incubated at 35° C. for approximately 18 hours for most of the isolates. The Streptococcus plates were read after 20 hours of incubation. The microplates were viewed from the bottom using a plate viewer. […] The MIC was read and recorded as the lowest concentration of drug that inhibited visible growth of the organism.

The next test concerns Streptococcus pyogenes. The experiment in a line: In vitro MIC, broth microdilution (CLSI). It is filed as cell-based. Particulars: MHB II with 2% lysed horse blood. The procedure:
as §1, §4, §5, §6, §7, §8

The next test deals with Streptococcus agalactiae. The experiment in a line: In vitro MIC, broth microdilution (CLSI). Format: cell-based. Particulars: MHB II with 2% lysed horse blood. The method, then:
as §1, §4, §5, §6, §7, §8

The subject of a further test is Enterococcus faecium. The experiment in a line: In vitro MIC, broth microdilution (CLSI). It is filed as cell-based. The procedure:
as §1, §4, §5, §6, §7, §8

For the next test, the system named is Enterococcus faecalis. The experiment in a line: In vitro MIC, broth microdilution (CLSI). Format: cell-based. The procedure:
as §1, §4, §5, §6, §7, §8

A further test concerns Staphylococcus aureus. The experiment in a line: In vitro MIC, broth microdilution (CLSI). Format: cell-based. The procedure: as §1, §4, §5, §6, §7, §8
The test system of test [2] is Staphylococcus epidermidis. The experiment in a line: In vitro MIC, broth microdilution (CLSI). Format: cell-based. The procedure:
as §1, §4, §5, §6, §7, §8

Test [3] concerns Methicillin-resistant Staphylococcus aureus. The experiment in a line: In vivo MRSA assay, thigh infection in a murine model. The arrangement: species or system Mice (CD-1). Particulars: vancomycin treated animals. The method, then: The in vivo antimicrobial activity for the isolated glycosides is represented in FIGS. 2A and 2B. Mice (CD-1) were purchased from Harlan Inc. and acclimatized up to 5 days before use. Food and water were available ad libitum throughout the study. They were rendered neutropenic by two injections of cyclophosphamide (100 mg/kg) given intraperitoneally, one and four days before infection. A volume of 50 uL suspension of Methicillin-resistant Staphylococcus aureus (1.5×10^6 live organisms) was injected intramuscularly (1M) into each of the two rear thighs. Each thigh was considered as an individual data point (total of 4 data points for each treatment). These mice were randomly distributed into the control or treatment groups (n=2/group).
Treatment with the test compound (1) was initiated via the intraperitoneal route 2 hrs after thigh inoculation. Control animals were concurrently administered saline (mock treatment) or vancomycin in the same volume as those receiving compound (1). All animals were sacrificed after 48 hours by CO2 inhalation. Immediately following sacrifice, thigh tissue was collected from the animals, weighed, and homogenized in 5.0 mL of saline. Thigh muscle homogenate was then processed for microbiological assay to determine the number of MRSA cfu per gram of muscle tissue.

The test system of a further test is MRSA. Particulars: background statement; cited from earlier work.

Consider `C[C@@H]1O[C@@H](Oc2c(-c3ccc(O)cc3)oc3cc(O)cc(O)c3c2=O)[C@H](OC(=O)/C=C\c2ccc(O)cc2)[C@H](OC(=O)/C=C\c2ccc(O)cc2)[C@H]1O` [Compound 4, kaempferol 3-O-α-L-(2″,3″-di-Z-p-coumaroyl)rhamnoside], for which, in the test on enterococci, the “activity against enterococci” value is “inhibited multiple strains”. In addition, the “in vitro activity (rank among the four compounds)” value in test [1] is recorded as “most potent in vitro activity”. The “activity against the streptococci” value in the test on streptococci was “Neither compound was active”. In addition, the minimum inhibitory concentration (MIC) with Streptococcus pneumoniae (MMX 748, PRSP, CHP) is greater than 32 µg/mL; against Streptococcus pneumoniae (MMX 866, PSSP, CHP) it was greater than 32 µg/mL; against Streptococcus pneumoniae (MMX 1195, CLSI QC, ATCC 49619), greater than 32 µg/mL; in the test on Streptococcus pneumoniae (MMX 3130, PSSP, UCLA) it was greater than 32 µg/mL; with Streptococcus pneumoniae (MMX 3160, PRSP, UCLA) it was greater than 32 µg/mL; in the test on Streptococcus pneumoniae (MMX 3937, PSSP, Mt. Sinai) it was greater than 32 µg/mL. The MIC is greater than 32 µg/mL against Streptococcus pneumoniae (MMX 3953, PRSP, Mt. Sinai); greater than 32 µg/mL against Streptococcus pyogenes (MMX 718, CHP); greater than 32 µg/mL in the test on Streptococcus pyogenes (MMX 2572, UCLA); greater than 32 µg/mL with Streptococcus pyogenes (MMX 3928, Mt. Sinai); greater than 32 µg/mL with Streptococcus agalactiae (MMX 3743, Mt. Sinai); greater than 32 µg/mL in the test on Streptococcus agalactiae (MMX 4093, UCLA). Moreover, the MIC against Streptococcus agalactiae (MMX 4106, CHP) is greater than 32 µg/mL; with Enterococcus faecium (MMX 0799, VSE, CHP), greater than 8 µg/mL; with Enterococcus faecium (MMX 0845, VSE, UCLA) it was 4 µg/mL (≈ 5.52 µM); against Enterococcus faecium (MMX 1238, VRE, Mt. Sinai), 4 µg/mL (≈ 5.52 µM); against Enterococcus faecium (MMX 1259, VSE, Mt. Sinai), greater than 8 µg/mL; against Enterococcus faecium (MMX 4024, VRE, CHP), greater than 8 µg/mL. The MIC in the test with Enterococcus faecium (MMX 4048, VRE, UCLA) is greater than 8 µg/mL; in the test on Enterococcus faecalis (MMX 101, CLSI QC, ATCC 29212), 8 µg/mL (≈ 11 µM); against Enterococcus faecalis (MMX 742, VSE, CHP), greater than 8 µg/mL; with Enterococcus faecalis (MMX 3199, VSE, UCLA) it was greater than 8 µg/mL; in the test with Enterococcus faecalis (MMX 3821, VRE, Mt. Sinai), 8 µg/mL (≈ 11 µM); with Enterococcus faecalis (MMX 3896, VSE, Mt. Sinai), greater than 8 µg/mL. The minimum inhibitory concentration (MIC) in the test with Enterococcus faecalis (MMX 4131, VRE, CHP) was 4 µg/mL (≈ 5.52 µM); in the test with Enterococcus faecalis (MMX 4160, VRE, UCLA), 8 µg/mL (≈ 11 µM); against Staphylococcus aureus (MMX 100, CLSI QC, ATCC 29213) it was greater than 8 µg/mL; in the test with Staphylococcus aureus (MMX 753, MSSA, CHP), greater than 8 µg/mL; in the test with Staphylococcus aureus (MMX 758, MRSA, CHP), greater than 8 µg/mL; with Staphylococcus aureus (MMX 2055, MRSA, UCLA), greater than 8 µg/mL. Further, the minimum inhibitory concentration (MIC) in the test with Staphylococcus aureus (MMX 2063, MSSA, UCLA) was greater than 8 µg/mL; against Staphylococcus aureus (MMX 3856, MSSA, Mt. Sinai) it was greater than 8 µg/mL; in the test with Staphylococcus aureus (MMX 3894, MRSA, Mt. Sinai), greater than 8 µg/mL; in test [2] (MMX 762, MRSE, CHP), greater than 8 µg/mL; in test [2] (MMX 826, MRSE, UCLA), greater than 8 µg/mL; in test [2] (MMX 835, MSSE, UCLA) it was 8 µg/mL (≈ 11 µM). The MIC is 8 µg/mL (≈ 11 µM) in test [2] (MMX 3703, MSSE, CHP); greater than 8 µg/mL in test [2] (MMX 3752, MRSE, Mt. Sinai); 8 µg/mL (≈ 11 µM) in test [2] (MMX 3763, MSSE, Mt. Sinai).
Consider `CN[C@H](CC(C)C)C(=O)N[C@H]1C(=O)N[C@@H](CC(N)=O)C(=O)N[C@H]2C(=O)N[C@H]3C(=O)N[C@H](C(=O)N[C@H](C(=O)O)c4cc(O)cc(O)c4-c4cc3ccc4O)[C@H](O)c3ccc(c(Cl)c3)Oc3cc2cc(c3O[C@@H]2O[C@H](CO)[C@@H](O)[C@H](O)[C@H]2O[C@H]2C[C@](C)(N)[C@H](O)[C@H](C)O2)Oc2ccc(cc2Cl)[C@H]1O` [Vancomycin, reference compound], for which, in test [3], the “reduction compared to vehicle control” value is listed as 72%. In test [3] (intraperitoneal, 48 hours, neutropenic mice), the “number of MRSA isolated from muscle tissue” value is listed as 2.2×10^7 g of tissue. In the test on MRSA, the success rate is 35-57%.
